Literature values as cited in publication PMC10287555, “Camonsertib in DNA damage response-deficient advanced solid tumors: phase 1 trial results” (Nature Medicine, 2023).

Test system: advanced solid tumors
Conditions: combination with gemcitabine; cited from earlier work

For `CNCc1ccc(-c2cc(-c3nc(-c4ccc(S(=O)(=O)C(C)C)cc4)cnc3N)on2)cc1` [berzosertib], the “Response rate in TMB-H NSCLC versus patients without elevated TMB” value is listed as “higher response rates”.
